Test system: HBV
Experiment: Viral load production from HepAD38 cells, qPCR of the HBV core sequence in supernatant
Type: cell-based
Settings: Hepatitis B virus, HePAD38, 120 h, HepAD38 cells, 5 days, HBV DNA in supernatant by qPCR; Table 1 ranges; read-out: Activity (viral load lowering EC50)
Outline: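 EC50 and CC50 come from four-parameter logistic fits of supernatant HBV core DNA (TaqMan qPCR, DNA standards, compared with DMSO wells) and of CellTiter-Glo luminescence.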

Row | Structure (SMILES) | EC50
1 | Cn1nc(C2CC3CC(CNC(=O)C4CCOCC4)CC3C2)c(C(=O)Nc2ccc(F)c(Cl)c2)c1N (stereo not drawn) [Example 50, 5-Amino-N-(3-chloro-4-fluorophenyl)-1-methyl-3-(5-((tetrahydro-2H-pyran-4-carboxamido)methyl)octahydropentalen-2-yl)-1H-pyrazole-4-carboxamide] | < 10 nM
2 | CC1CCC(C(=O)NCC2CC3CC(c4nn(C)c(N)c4C(=O)Nc4ccc(F)c(Cl)c4)CC3C2)CC1 (stereo not drawn) [Example 51, 5-Amino-N-(3-chloro-4-fluorophenyl)-1-methyl-3-(5-((4-methylcyclohexane-1-carboxamido)methyl)octahydropentalen-2-yl)-1H-pyrazole-4-carboxamide] | 10 to 50 nM
3 | C#CCCC(=O)NCC1CC2CC(c3nn(C)c(N)c3C(=O)Nc3ccc(F)c(Cl)c3)CC2C1 (stereo not drawn) [Example 52, 5-Amino-N-(3-chloro-4-fluorophenyl)-1-methyl-3-(5-(pent-4-ynamidomethyl)octahydropentalen-2-yl)-1H-pyrazole-4-carboxamide] | < 10 nM
4 | Cn1nc(C2CC3CC(CNC(=O)C4CCC(F)(F)CC4)CC3C2)c(C(=O)Nc2ccc(F)c(Cl)c2)c1N (stereo not drawn) [Example 53, 5-Amino-N-(3-chloro-4-fluorophenyl)-3-(5-((4,4-difluorocyclohexane-1-carboxamido)methyl)octahydropentalen-2-yl)-1-methyl-1H-pyrazole-4-carboxamide] | < 10 nM
5 | CC(=O)NCC1CC2CC(c3nn(C)c(N)c3C(=O)Nc3ccc(F)c(Cl)c3)CC2C1 (stereo not drawn) [Example 54, 3-(5-(Acetamidomethyl)octahydropentalen-2-yl)-5-amino-N-(3-chloro-4-fluorophenyl)-1-methyl-1H-pyrazole-4-carboxamide] | < 10 nM
6 | Cn1nc(C2CC3CC(CNC(=O)CC(F)(F)F)CC3C2)c(C(=O)Nc2ccc(F)c(Cl)c2)c1N (stereo not drawn) [Example 55, 5-Amino-N-(3-chloro-4-fluorophenyl)-1-methyl-3-(5-((3,3,3-trifluoropropanamido)methyl)octahydropentalen-2-yl)-1H-pyrazole-4-carboxamide] | < 10 nM
7 | Cn1nc(C2CC3CC(CNC(=O)CCC(C)(C)C)CC3C2)c(C(=O)Nc2ccc(F)c(Cl)c2)c1N (stereo not drawn) [Example 56, 5-Amino-N-(3-chloro-4-fluorophenyl)-3-(5-((4,4-dimethylpentanamido)methyl)octahydropentalen-2-yl)-1-methyl-1H-pyrazole-4-carboxamide] | < 10 nM
8 | Cn1nc(C2CC3CC(CNC(=O)c4ccc(C(F)(F)F)cc4)CC3C2)c(C(=O)Nc2ccc(F)c(Cl)c2)c1N (stereo not drawn) [Example 57, 5-Amino-N-(3-chloro-4-fluorophenyl)-1-methyl-3-(5-((4-(trifluoromethyl)benzamido)methyl)octahydropentalen-2-yl)-1H-pyrazole-4-carboxamide] | 10 to 50 nM
9 | Cn1nc(C2CC3CC(CNC(=O)c4cnc(C(F)(F)F)s4)CC3C2)c(C(=O)Nc2ccc(F)c(Cl)c2)c1N (stereo not drawn) [Example 58, N-((5-(5-Amino-4-((3-chloro-4-fluorophenyl)carbamoyl)-1-methyl-1H-pyrazol-3-yl)octahydropentalen-2-yl)methyl)-2-(trifluoromethyl)thiazole-5-carboxamide] | 10 to 50 nM
10 | Cc1noc(C)c1C(=O)NCC1CC2CC(c3nn(C)c(N)c3C(=O)Nc3ccc(F)c(Cl)c3)CC2C1 (stereo not drawn) [Example 59, N-((5-(5-Amino-4-((3-chloro-4-fluorophenyl)carbamoyl)-1-methyl-1H-pyrazol-3-yl)octahydropentalen-2-yl)methyl)-3,5-dimethylisoxazole-4-carboxamide] | < 10 nM
11 | Cn1nc(C2CC3CC(CNC(=O)c4ccns4)CC3C2)c(C(=O)Nc2ccc(F)c(Cl)c2)c1N (stereo not drawn) [Example 60, N-((5-(5-Amino-4-((3-chloro-4-fluorophenyl)carbamoyl)-1-methyl-1H-pyrazol-3-yl)octahydropentalen-2-yl)methyl)isothiazole-5-carboxamide] | < 10 nM
12 | Cn1nc(C2CC3CC(CNC(=O)c4cncc(F)c4)CC3C2)c(C(=O)Nc2ccc(F)c(Cl)c2)c1N (stereo not drawn) [Example 61, N-((5-(5-Amino-4-((3-chloro-4-fluorophenyl)carbamoyl)-1-methyl-1H-pyrazol-3-yl)octahydropentalen-2-yl)methyl)-5-fluoronicotinamide] | < 10 nM
13 | Cn1nc(C2CC3CC(CNC(=O)C4CCN(C(=O)OC(C)(C)C)CC4)CC3C2)c(C(=O)Nc2ccc(F)c(Cl)c2)c1N (stereo not drawn) [Example 62, tert-Butyl 4-(((5-(5-amino-4-((3-chloro-4-fluorophenyl)carbamoyl)-1-methyl-1H-pyrazol-3-yl)octahydropentalen-2-yl)methyl)carbamoyl)piperidine-1-carboxylate] | < 10 nM
14 | Cn1nc(C2CC3CC(CNC(=O)C(C)(C)C4CCOCC4)CC3C2)c(C(=O)Nc2ccc(F)c(Cl)c2)c1N (stereo not drawn) [Example 63, 5-Amino-N-(3-chloro-4-fluorophenyl)-1-methyl-3-(5-((2-methyl-2-(tetrahydro-2H-pyran-4-yl)propanamido)methyl)octahydropentalen-2-yl)-1H-pyrazole-4-carboxamide] | 10 to 50 nM
15 | Cn1nc(C2CC3CC(CNC(=O)C4(C)COC4)CC3C2)c(C(=O)Nc2ccc(F)c(Cl)c2)c1N (stereo not drawn) [Example 64, 5-Amino-N-(3-chloro-4-fluorophenyl)-1-methyl-3-(5-((3-methyloxetane-3-carboxamido)methyl)octahydropentalen-2-yl)-1H-pyrazole-4-carboxamide] | < 10 nM
16 | Cn1nc(C2CC3CC(CNC(=O)C4(C)CC4)CC3C2)c(C(=O)Nc2ccc(F)c(Cl)c2)c1N (stereo not drawn) [Example 65, 5-Amino-N-(3-chloro-4-fluorophenyl)-1-methyl-3-(5-((1-methylcyclopropane-1-carboxamido)methyl)octahydropentalen-2-yl)-1H-pyrazole-4-carboxamide] | < 10 nM
17 | Cn1nc(C2CC3CC(CNC(=O)C(C)(C)C(F)(F)F)CC3C2)c(C(=O)Nc2ccc(F)c(Cl)c2)c1N (stereo not drawn) [Example 66, 5-Amino-N-(3-chloro-4-fluorophenyl)-1-methyl-3-(5-((3,3,3-trifluoro-2,2-dimethylpropanamido)methyl)octahydropentalen-2-yl)-1H-pyrazole-4-carboxamide] | 10 to 50 nM
18 | Cn1nc(C2CC3CC(CNC(=O)C(C)(C)CO)CC3C2)c(C(=O)Nc2ccc(F)c(Cl)c2)c1N (stereo not drawn) [Example 67, 5-Amino-N-(3-chloro-4-fluorophenyl)-3-(5-((3-hydroxy-2,2-dimethylpropanamido)methyl)octahydropentalen-2-yl)-1-methyl-1H-pyrazole-4-carboxamide] | < 10 nM
19 | Cn1nc(C2CC3CC(CNC(=O)C4(C)CCC4)CC3C2)c(C(=O)Nc2ccc(F)c(Cl)c2)c1N (stereo not drawn) [Example 68, 5-Amino-N-(3-chloro-4-fluorophenyl)-1-methyl-3-(5-((1-methylcyclobutane-1-carboxamido)methyl)octahydropentalen-2-yl)-1H-pyrazole-4-carboxamide] | < 10 nM
20 | Cn1nc(C2CC3CC(CNC(=O)C45CC(C4)C5)CC3C2)c(C(=O)Nc2ccc(F)c(Cl)c2)c1N (stereo not drawn) [Example 69, 5-Amino-3-(5-((bicyclo[1.1.1]pentane-1-carboxamido)methyl)octahydropentalen-2-yl)-N-(3-chloro-4-fluorophenyl)-1-methyl-1H-pyrazole-4-carboxamide] | < 10 nM
21 | Cn1nc(C2CC3CC(CNC(=O)C(C)(C)C4CCN(C(=O)OC(C)(C)C)CC4)CC3C2)c(C(=O)Nc2ccc(F)c(Cl)c2)c1N (stereo not drawn) [Example 70, tert-Butyl 4-(1-(((5-(5-amino-4-((3-chloro-4-fluorophenyl)carbamoyl)-1-methyl-1H-pyrazol-3-yl)octahydropentalen-2-yl)methyl)amino)-2-methyl-1-oxopropan-2-yl)piperidine-1-carboxylate] | 10 to 50 nM
22 | Cn1nc(C2CC3CC(CNC(=O)CCCN4CCCCC4)CC3C2)c(C(=O)Nc2ccc(F)c(Cl)c2)c1N (stereo not drawn) [Example 71, 5-Amino-N-(3-chloro-4-fluorophenyl)-1-methyl-3-(5-((4-(piperidin-1-yl)butanamido)methyl)octahydropentalen-2-yl)-1H-pyrazole-4-carboxamide] | 10 to 50 nM
23 | Cn1nc(C2CC3CC(CNC(=O)CCCN4CCOCC4)CC3C2)c(C(=O)Nc2ccc(F)c(Cl)c2)c1N (stereo not drawn) [Example 72, 5-Amino-N-(3-chloro-4-fluorophenyl)-1-methyl-3-(5-((4-morpholinobutanamido)methyl)octahydropentalen-2-yl)-1H-pyrazole-4-carboxamide] | < 10 nM
24 | Cn1nc(C2CC3CC(CNC(=O)CCCCCNC(=O)OC(C)(C)C)CC3C2)c(C(=O)Nc2ccc(F)c(Cl)c2)c1N (stereo not drawn) [Example 73, tert-Butyl (6-(((5-(5-amino-4-((3-chloro-4-fluorophenyl)carbamoyl)-1-methyl-1H-pyrazol-3-yl)octahydropentalen-2-yl)methyl)amino)-6-oxohexyl)carbamate] | 10 to 50 nM
25 | Cn1nc(C2CC3CC(CNC(=O)COCCOCCNC(=O)OC(C)(C)C)CC3C2)c(C(=O)Nc2ccc(F)c(Cl)c2)c1N (stereo not drawn) [Example 74, tert-Butyl (2-(2-(2-(((5-(5-amino-4-((3-chloro-4-fluorophenyl)carbamoyl)-1-methyl-1H-pyrazol-3-yl)octahydropentalen-2-yl)methyl)amino)-2-oxoethoxy)ethoxy)ethyl)carbamate] | < 10 nM
26 | Cn1nc(C2CC3CC(CNC(=O)C4CCNCC4)CC3C2)c(C(=O)Nc2ccc(F)c(Cl)c2)c1N (stereo not drawn) [Example 75, N-((5-(5-Amino-4-((3-chloro-4-fluorophenyl)carbamoyl)-1-methyl-1H-pyrazol-3-yl)octahydropentalen-2-yl)methyl)piperidine-4-carboxamide] | 10 to 50 nM
27 | Cn1nc(C2CC3CC(CNC(=O)C4CCCCC4)CC3C2)c(C(=O)Nc2ccc(F)c(Cl)c2)c1N (stereo not drawn) [Example 76, 5-Amino-N-(3-chloro-4-fluorophenyl)-3-(5-(cyclohexanecarboxamidomethyl)octahydropentalen-2-yl)-1-methyl-1H-pyrazole-4-carboxamide] | 10 to 50 nM

Source: patent US20230295096A1, “PYRAZOLE CARBOXAMIDE COMPOUNDS FOR TREATMENT OF HBV” (ASSEMBLY BIOSCIENCES, INC., priority 2020, published 2023)
